The text below walks through data of article doi:10.1101/2021.05.03.442520v1 (biorxiv, 2021).

As a reminder, the inhibition is the change of the read-out against control, counted positive when it falls.

In the assay the target is TMPRSS2 (Homo sapiens, UniProt O15393). Description: fluorogenic pericellular protease assay, transfected Vero E6 cells. To be noted: Vero C1008, read-out: % inhibition at 10 nM. The class given is cell-based.
Chain of TMPRSS2 (O15393 whole entry): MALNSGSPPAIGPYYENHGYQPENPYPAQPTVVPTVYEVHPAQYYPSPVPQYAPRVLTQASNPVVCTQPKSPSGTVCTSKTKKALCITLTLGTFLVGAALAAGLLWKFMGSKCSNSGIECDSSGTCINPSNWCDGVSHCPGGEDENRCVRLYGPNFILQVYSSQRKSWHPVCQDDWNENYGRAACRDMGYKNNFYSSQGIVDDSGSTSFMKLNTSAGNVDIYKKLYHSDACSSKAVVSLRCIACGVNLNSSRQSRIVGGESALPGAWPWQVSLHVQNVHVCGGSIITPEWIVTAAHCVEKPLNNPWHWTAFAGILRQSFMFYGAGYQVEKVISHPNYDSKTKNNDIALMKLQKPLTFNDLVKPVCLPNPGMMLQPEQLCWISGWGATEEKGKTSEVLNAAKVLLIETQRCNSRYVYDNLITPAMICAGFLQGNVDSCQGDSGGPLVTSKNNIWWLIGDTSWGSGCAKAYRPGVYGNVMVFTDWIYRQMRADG

As for `N=C(N)NCCCCC(=O)N[C@@H](CCC(N)=O)C(=O)N[C@@H](CC1CCCCC1)C(=O)N[C@@H](CCCNC(=N)N)C(=O)c1nc2ccccc2s1` [N-0678], the inhibition at 0.01 µM came out at 5%.

Consider `N=C(N)NCCC[C@H](NC(=O)[C@H](Cc1ccccc1)NC(=O)[C@H](CCC(N)=O)NC(=N)N)C(=O)c1nc2ccccc2s1` [N-1296], for which the inhibition at 0.01 µM was 16%.
